{"source": "patent US20170360747A1", "about": "“USE OF ZILEUTON FOR THE TREATMENT OF NASAL POLYPS IN CYSTIC FIBROSIS PATIENTS” (CORNERSTONE THERAPEUTICS INC., priority 2011, published 2017)", "molecules": {"B1": {"name": "dornase alfa (protein, UniProt P24855 23-282, looked up)", "Deoxyribonuclease-1": "LKIAAFNIQTFGETKMSNATLVSYIVQILSRYDIALVQEVRDSHLTAVGKLLDNLNQDAPDTYHYVVSEPLGRNSYKERYLFVYRPDQVSAVDSYYYDDGCEPCGNDTFNREPAIVRFFSRFTEVREFAIVPLHAAPGDAVAEIDALYDVYLDVQEKWGLEDVMLMGDFNAGCSYVRPSQWSSIRLWTSPTFQWLIPDSADTTATPTHCAYDRIVVAGMLLRGAVVPDSALPFNFQAAYGLSDQLAQAISDHYPVEVMLK", "notes": "inhaled dornase alfa, part of aggressive medical treatment"}}, "key": {"[1]": {"system": "nasal polyposis in patient with cystic fibrosis", "test": "Case report Example 1: cystic fibrosis patient with bilateral nasal polyposis", "type": "in vivo, human", "method": "A patient has a history of cystic fibrosis and chronic sinusitis. The patient complained of hyposmia and nasal congestion. […] Culture of the sinuses grew out Pseudomonas. Patient was prescribed ciprofloxacin per the sinus culture. […] Prior to prescribing oral zileuton, a liver function test was performed that was normal. Patient was given zileuton 1200 mg BID. Two months later patient came back with improved nasal congestion and smell. […] Since the patient's symptoms improved, the zileuton was eventually discontinued. After a few months the patient's sinus infection returned. Patient was placed on oral ciprofloxacin."}, "[2]": {"system": "coughing in patient with cystic fibrosis and chronic sinusitis", "test": "Case report Example 2: cystic fibrosis patient with chronic sinusitis and coughing", "type": "in vivo, human", "method": "Patient failed medical treatment, so they underwent endoscopic sinus surgery. Patient's sinus culture has grown MRSA and Pseudomonas. Patient initially did well after the surgery but was readmitted for pulmonary exacerbation. […] Patient was treated with ciprofloxacin for Pseudomonas. […] Nasal endoscopy was not performed in the child due to their young age. The patient was then treated with zileuton 600 mg BID after a normal liver function test. Patient's coughing improved with the zileuton treatment."}, "5-lipoxygenase": {"biological_target": "T1, 5-lipoxygenase (Homo sapiens, UniProt P09917)", "T1 sequence (P09917 1-674)": "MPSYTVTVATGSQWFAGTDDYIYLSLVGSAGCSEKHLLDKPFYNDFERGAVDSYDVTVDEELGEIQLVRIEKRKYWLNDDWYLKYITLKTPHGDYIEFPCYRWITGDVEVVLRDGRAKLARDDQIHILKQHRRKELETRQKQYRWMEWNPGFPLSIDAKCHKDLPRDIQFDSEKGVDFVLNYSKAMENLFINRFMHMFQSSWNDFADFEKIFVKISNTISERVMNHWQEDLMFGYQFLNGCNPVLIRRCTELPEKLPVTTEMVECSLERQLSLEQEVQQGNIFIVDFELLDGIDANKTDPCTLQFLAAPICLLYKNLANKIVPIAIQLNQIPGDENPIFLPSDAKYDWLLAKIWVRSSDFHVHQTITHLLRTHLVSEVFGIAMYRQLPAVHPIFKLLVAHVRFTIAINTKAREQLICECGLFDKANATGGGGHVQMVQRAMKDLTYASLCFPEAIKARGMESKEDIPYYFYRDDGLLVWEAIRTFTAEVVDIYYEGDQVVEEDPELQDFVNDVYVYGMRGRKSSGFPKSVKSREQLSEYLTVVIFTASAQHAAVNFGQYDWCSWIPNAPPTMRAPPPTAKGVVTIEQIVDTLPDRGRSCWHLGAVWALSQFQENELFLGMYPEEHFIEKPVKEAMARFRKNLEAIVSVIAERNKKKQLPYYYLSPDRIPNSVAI", "details": "statement 'recently been found', no data given; cited from earlier work"}, "[3]": {"details": "zileuton 1200 mg BID oral, two months later, one patient"}, "[4]": {"details": "treatments given before zileuton (ciprofloxacin for Pseudomonas; inhaled dornase alfa)"}}}
{"molecule": "CC(c1cc2ccccc2s1)N(O)C(N)=O", "note": "(racemic) [zileuton, (±)-1-(1-Benzo[b]thien-2-ylethyl)-1-hydroxyurea]", "values": [{"measurement": "nasal congestion and smell", "setting": "[1]; [3]", "result": "improved"}, {"measurement": "nasal endoscopy: polyps", "setting": "[1]; [3]", "result": "decreased polyps"}, {"measurement": "nasal endoscopy: purulence", "setting": "[1]; zileuton 1200 mg BID oral, two months later, prescribed ciprofloxacin not taken", "result": "no purulence"}, {"measurement": "adverse effect: coughing", "setting": "[1]; zileuton 1200 mg BID, dose then decreased to 600 mg BID", "result": "increased coughing"}, {"measurement": "coughing", "setting": "[2]; zileuton 600 mg BID, one patient", "result": "improved"}]}
{"molecule": "C[C@H](c1cc2ccccc2s1)N(O)C(N)=O", "note": "[(R)-zileuton]", "values": [{"measurement": "efficacy in inhibiting 5-lipoxygenase activity, compared between enantiomers and racemate", "setting": "5-lipoxygenase", "result": "more efficacious than either of (S)-zileuton and racemic zileuton"}]}
{"molecule": "O=C(O)c1cn(C2CC2)c2cc(N3CCNCC3)c(F)cc2c1=O", "note": "[ciprofloxacin]", "values": [{"measurement": "nasal symptoms after return of sinus infection", "setting": "[1]; oral ciprofloxacin, after zileuton was discontinued", "result": "initial improvement but eventually had return of their nasal symptoms"}, {"measurement": "coughing", "setting": "[2]; [4]", "result": "initially improved but gradually returned"}]}
{"molecule": "B1", "values": [{"measurement": "coughing", "setting": "[2]; [4]", "result": "continued to have coughing"}]}
